Experimental data: publication PMC6287599, “2,6-Bis(2-Benzimidazolyl)Pyridine (BBP) Is a Potent and Selective Inhibitor of Small Conductance Calcium-Activated Potassium (SK) Channels” (Frontiers in Pharmacology, 2018)
Entries after “also recorded” stand apart in the source; their conditions may differ.

Legend:
Assay type in all cases: cell-based
hIK = molecular target: T1, hIK (Homo sapiens, UniProt O15554); assay: Manual whole cell patch clamp, HEK293 transiently transfected with hIK; conditions: BBP 1 μM, n = 6
T1 construct: expressed in transfected cells; host or cells: HEK293 (transient, co-transfected with eGFP)
Description: HEK293 cells were transiently co-transfected with the plasmid of interest (hBK, hSK1, hSK2, hSK3 WT, rSK3 H491N, or hIK) and eGFP using standard Lipofectamine™ 2000 (Thermo Fisher Scientific, Waltham, Massachussets, USA) transfection protocols. After transfection, cells were incubated overnight before the experiments.
Manual patch clamp experiments were performed at room temperature in the whole cell configuration with a HEKA EPC9 amplifier and the Patchmaster software (HEKA Elektronik, Ludwigshafen, Germany). All currents were elicited every 2 s using an incremental 200 ms voltage-ramp protocol starting at −80 mV and finishing at +80 mV from a holding potential of 0 mV. Borosilicate glass pipettes were pulled with a horizontal puller (DMZ Universal Puller, Zeitz Instruments, Martinsried, Germany) with resistances 2.5–3 MΩ. Currents were measured using the same solutions as the ones used for automated patch clamp, with symmetrical potassium concentrations and a free intracellular calcium concentration of 400 nM. […] On the day of the experiment, cells were rinsed with magnesium-free PBS and detached with Detachin™ (Amsbio, Abingdon, United Kingdom) before being plated on 0.5 mm diameter coverslips. Only fluorescent cells were considered for patch clamp experiments.
To do so, we transiently transfected HEK293 WT cells with a plasmid containing one of the human SK channel subtypes, the big conductance calcium and voltage-activated potassium (BK) channel or the intermediate conductance calcium-activated potassium (IK) channel. […] Finally, a positive control was used to inhibit the remaining current and quantify the total effect of BBP. […]

Kir3.1+Kir3.4 = molecular target: T2, Kir3.1+Kir3.4 (Homo sapiens, UniProt P48544+P48549); assay: Two-electrode voltage clamp in Xenopus laevis oocytes, Kir3.1+Kir3.4; conditions: BBP 10 μM, TEVC, n = 5
T2 sequence (P48549 1-501): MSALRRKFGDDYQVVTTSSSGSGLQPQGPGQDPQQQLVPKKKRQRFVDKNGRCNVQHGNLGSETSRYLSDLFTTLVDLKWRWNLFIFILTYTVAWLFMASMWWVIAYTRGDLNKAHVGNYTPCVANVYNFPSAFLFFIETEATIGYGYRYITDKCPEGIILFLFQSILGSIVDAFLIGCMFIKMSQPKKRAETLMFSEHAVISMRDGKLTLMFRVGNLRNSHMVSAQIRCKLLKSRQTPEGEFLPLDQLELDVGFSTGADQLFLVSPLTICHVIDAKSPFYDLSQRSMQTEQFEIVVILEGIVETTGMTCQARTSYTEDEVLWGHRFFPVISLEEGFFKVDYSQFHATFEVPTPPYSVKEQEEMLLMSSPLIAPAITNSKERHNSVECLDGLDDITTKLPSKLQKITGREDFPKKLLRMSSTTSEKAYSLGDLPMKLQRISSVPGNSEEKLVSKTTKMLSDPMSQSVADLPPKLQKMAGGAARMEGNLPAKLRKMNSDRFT
T2 sequence (P48544 1-419): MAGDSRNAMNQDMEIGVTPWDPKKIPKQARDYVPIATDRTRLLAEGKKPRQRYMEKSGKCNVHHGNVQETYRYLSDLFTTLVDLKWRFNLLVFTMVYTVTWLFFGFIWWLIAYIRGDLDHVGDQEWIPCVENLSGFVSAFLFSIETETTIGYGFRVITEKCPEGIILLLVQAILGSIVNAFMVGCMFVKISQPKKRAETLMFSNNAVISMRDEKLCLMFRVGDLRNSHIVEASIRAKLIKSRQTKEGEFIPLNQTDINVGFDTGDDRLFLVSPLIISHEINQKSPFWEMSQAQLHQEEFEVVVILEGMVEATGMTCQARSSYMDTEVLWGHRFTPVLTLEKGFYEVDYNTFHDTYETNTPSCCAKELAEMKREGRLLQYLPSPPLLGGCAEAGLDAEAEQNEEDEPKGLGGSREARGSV
Description: (§1) cRNA was prepared from linearized plasmids using the mMESSAGE mMACHINE T7 kit (Ambion, USA) and quantified by UV spectroscopy (NanoDrop, Thermo Scientific, Wilmington, USA). Xenopus laevis oocytes were acquired from EcoCyte Bioscience (Castrop-Rauxel, Germany). Oocytes were injected with 50 nL cRNA and currents were recorded after 2 days of incubation at 19°C. Currents were recorded at a sampling rate of 10 kHz using a TEVC amplifier (Dagan CA-1B; IL, USA), and borosilicate glass recording electrodes (Module Ohm, Herlev, Denmark), made with a DMZ Universal Puller (Zeitz Instruments, Martinsried, Germany) with a resistance of 0.5–1 MΩ when filled with 2 M KCl. Oocytes were superfused with Kulori (pH 7.4) solution containing NaCl 90 mM, KCl 4 mM, MgCl2 1 mM, CaCl2 1 mM, 4-(2-hydroxyethyl)-1-piperazineethanesulfonic acid 5 mM, and currents were elicited with the voltage protocols previously indicated (Skarsfeldt et al., [2016]), from a holding potential of −80 mV. […]
(§2) To assess the effect of BBP on other calcium-activated potassium channels (hBK, hSK3 WT, rSK3 H491N, and hIK), each individual current was first normalized to its cell size using membrane's capacitance (pA/pF) before statistical analysis. […] Statistical significance between saline and the effect of both BBP and the corresponding reference compound was determined for each channel using one-way ANOVA analysis. […]

Kv1.5 = Kv1.5 (Homo sapiens, UniProt P22460); assay: Two-electrode voltage clamp in Xenopus laevis oocytes, Kv1.5; conditions: BBP 10 μM, TEVC, n = 5
Chain of Kv1.5 (P22460 whole entry): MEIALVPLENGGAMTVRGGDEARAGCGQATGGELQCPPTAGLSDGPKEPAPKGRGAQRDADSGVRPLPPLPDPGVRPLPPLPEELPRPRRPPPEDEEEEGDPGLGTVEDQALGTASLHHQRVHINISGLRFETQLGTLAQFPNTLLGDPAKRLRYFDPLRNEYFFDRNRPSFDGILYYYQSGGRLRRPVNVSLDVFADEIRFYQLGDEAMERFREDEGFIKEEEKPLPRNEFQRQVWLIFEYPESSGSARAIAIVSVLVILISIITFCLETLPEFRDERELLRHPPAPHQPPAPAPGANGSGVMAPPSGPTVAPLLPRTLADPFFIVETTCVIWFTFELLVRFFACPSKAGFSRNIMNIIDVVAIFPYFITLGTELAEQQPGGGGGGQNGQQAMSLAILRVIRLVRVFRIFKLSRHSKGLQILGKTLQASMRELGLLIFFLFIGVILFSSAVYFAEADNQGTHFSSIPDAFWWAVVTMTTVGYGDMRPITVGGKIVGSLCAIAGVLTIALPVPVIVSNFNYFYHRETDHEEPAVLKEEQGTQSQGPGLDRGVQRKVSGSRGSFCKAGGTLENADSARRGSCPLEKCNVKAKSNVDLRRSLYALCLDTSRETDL
Description: as §1, §2

c1cc(-c2nc3ccccc3[nH]2)nc(-c2nc3ccccc3[nH]2)c1 [BBP, 2,6-Bis(2-benzimidazolyl)pyridine]
Effect on hIK current (hIK): did not have any effect; also recorded: remained unaffected; also recorded: not affected
Effect on Kir3.1+Kir3.4 current (Kir3.1+Kir3.4): did not have any effect; also recorded: did not significantly affect
Effect on Kv1.5 current (Kv1.5): did not have any effect; also recorded: did not significantly affect
